Assays:
Bromopyruvate + AZD7762 = compound: C(C(=O)C(=O)O)Br [Bromopyruvate] + NC(=O)Nc1cc(-c2cccc(F)c2)sc1C(=O)N[C@H]1CCCNC1 [AZD7762] (partner 0.2 µM); assay: relative viability (nuclei count vs DMSO), 5 days (fraction); higher = more cells survive
Outline: (§1)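 Lung cancer cell lines were seeded in 1536-well plates and dosed by pin tool the next day, with either a single drug or a fixed anchor-drug dose combined with five library-drug doses (not always all listed) spaced in √10 steps. Five days later, one step fixed the cells and stained their nuclei (final 0.05% Triton X-100, 1% formaldehyde, 1 ug/ml Hoechst), and nuclei were counted on 4× images. Relative viability is the nuclei count in treated wells divided by the count in vehicle wells, and each value is the median of duplicate plates.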

[1] = compound: C(C(=O)C(=O)O)Br [Bromopyruvate] + CC(=O)Nc1cccc(-n2c(=O)n(C3CC3)c(=O)c3c(Nc4ccc(I)cc4F)n(C)c(=O)c(C)c32)c1 [Trametinib] (partner 0.02 µM); assay: as above
Outline: as §1

Cell Line | relative viability (Bromopyruvate + AZD7762; first compound 1 µM) | relative viability (Bromopyruvate + AZD7762; first compound 3.162 µM) | relative viability (Bromopyruvate + AZD7762; first compound 10 µM) | relative viability (Bromopyruvate + AZD7762; first compound 31.62 µM) | relative viability (Bromopyruvate + AZD7762; first compound 100 µM) | relative viability ([1]; first compound 1 µM) | relative viability ([1]; first compound 3.162 µM) | relative viability ([1]; first compound 10 µM) | relative viability ([1]; first compound 31.62 µM) | relative viability ([1]; first compound 100 µM)
201T | 0.638 | 0.715 | 0.6 | 0.594 | 0.603 | 0.709 | 0.719 | 0.709 | 0.725 | 0.755
A-427 | 0.782 | 0.747 | 0.883 | 0.66 | 0.755 | 0.73 | 0.766 | 0.838 | 0.767 | 0.771
ABC-1 | 0.532 | 0.995 | 0.951 | 0.834 | 0.734 |  |  |  |  | 
BEN | 0.806 | 0.662 | 0.743 | 0.613 | 0.619 | 1.03 | 0.983 | 1.18 | 0.97 | 1.2
CAL-12T | 0.633 | 0.588 | 0.611 | 0.568 | 0.637 | 0.302 | 0.285 | 0.393 | 0.347 | 0.307
COR-L23 |  |  |  |  |  | 0.585 | 0.652 | 0.651 | 0.582 | 0.544
COR-L 105 |  |  |  |  |  | 0.432 | 0.449 | 0.417 | 0.422 | 0.329
ChaGo-K-1 | 0.881 | 0.868 | 0.874 | 0.866 | 0.92 | 0.887 | 0.911 | 0.963 | 0.855 | 0.903
EKVX | 0.818 | 0.791 | 0.662 | 0.61 | 0.693 | 0.368 | 0.381 | 0.334 | 0.448 | 0.378
EMC-BAC-2 | 1.04 | 1.16 | 1.09 | 1.04 | 1.1 | 0.753 | 1.01 | 0.985 |  | 0.959
EPLC-272H | 0.236 | 0.205 | 0.346 | 0.313 | 0.258 | 0.266 | 0.278 | 0.341 | 0.302 | 0.289
H3255 | 0.907 | 0.86 | 0.964 | 0.886 | 0.836 | 0.55 | 0.547 | 0.647 | 0.574 | 0.718
HARA | 1.98 | 0.393 |  | 0.298 | 0.289 | 0.709 | 0.814 |  | 0.633 | 1
HCC-15 | 1.22 | 1.25 | 1.32 | 1.25 | 1.22 | 0.349 | 0.385 | 0.386 | 0.369 | 0.393
HCC-44 | 0.959 | 1.01 | 0.963 | 1.02 | 1.04 | 1.08 | 1.02 | 1.04 | 1.11 | 1
HCC-78 | 0.481 | 0.624 | 0.565 | 0.549 | 0.463 | 0.746 | 0.681 | 0.955 | 0.71 | 0.72
HCC-366 | 0.272 | 0.346 | 0.197 | 0.254 | 0.249 | 0.361 | 0.322 | 0.41 | 0.359 | 0.322
HCC-827 | 0.175 | 0.195 | 0.198 | 0.203 | 0.19 | 0.51 | 0.542 | 0.579 | 0.551 | 0.568

Cell Line | relative viability (Bromopyruvate + AZD7762; first compound 1 µM) | relative viability (Bromopyruvate + AZD7762; first compound 3.162 µM) | relative viability (Bromopyruvate + AZD7762; first compound 10 µM) | relative viability (Bromopyruvate + AZD7762; first compound 31.62 µM) | relative viability (Bromopyruvate + AZD7762; first compound 100 µM) | relative viability ([1]; first compound 1 µM) | relative viability ([1]; first compound 3.162 µM) | relative viability ([1]; first compound 10 µM) | relative viability ([1]; first compound 31.62 µM) | relative viability ([1]; first compound 100 µM)
HOP-62 | 0.498 | 0.573 | 0.473 | 0.444 | 0.665 | 0.405 | 0.343 | 0.372 | 0.408 | 0.485
LC-2-ad | 0.885 | 0.863 | 0.881 | 0.812 | 0.799 | 0.892 | 0.904 | 0.872 | 0.958 | 0.945
LCLC-97TM1 | 0.224 | 0.375 | 0.207 | 0.275 | 0.236 | 0.193 | 0.188 | 0.2 | 0.165 | 0.277
LCLC-103H | 0.726 | 0.804 | 0.951 | 0.751 | 0.901 | 0.681 | 0.692 | 0.696 | 0.693 | 0.767
LK-2 | 0.423 | 0.458 | 0.266 | 0.474 | 0.387 | 0.742 | 0.92 | 0.872 | 0.782 | 0.519
LOU-NH91 | 0.801 | 0.755 | 0.742 | 0.771 | 0.837 | 0.79 | 0.761 | 0.799 | 0.826 | 0.866
LU99A | 0.318 | 0.364 | 0.346 | 0.362 | 0.341 | 0.521 | 0.531 | 0.621 | 0.564 | 0.661
LXF-289 | 1.07 | 1.12 | 1.08 | 1.07 | 1.26 | 0.671 | 0.653 | 0.627 | 0.693 | 0.67
NCI-H23 | 0.27 | 0.22 | 0.249 | 0.206 | 0.251 | 0.371 | 0.375 | 0.346 | 0.354 | 0.336
NCI-H322M | 0.623 | 0.58 | 0.523 | 0.581 | 0.628 | 0.525 | 0.537 | 0.517 | 0.536 | 0.5
NCI-H358 | 0.656 | 0.578 | 0.609 | 0.505 | 0.555 | 0.145 | 0.132 | 0.139 | 0.128 | 0.133
NCI-H441 | 1.01 | 1.18 | 1.06 | 0.978 | 1.14 | 0.47 | 0.529 | 0.506 | 0.526 | 0.458
NCI-H460 | 0.676 | 0.698 | 0.721 | 0.565 | 0.621 | 0.164 | 0.101 | 0.132 | 0.18 | 0.235
NCI-H520 |  |  |  |  |  | 0.653 | 0.716 | 0.755 | 0.637 | 0.646
NCI-H522 | 0.874 | 0.861 | 0.821 | 1.05 | 0.755 | 0.697 | 0.671 | 0.778 | 0.92 | 0.757
NCI-H596 | 1.08 | 1.28 | 1.12 | 1.17 | 0.993 | 0.743 | 0.84 | 0.789 | 0.74 | 0.845
NCI-H647 | 0.565 | 0.63 | 0.405 | 0.553 | 0.568 | 0.425 | 0.472 | 0.665 | 0.473 | 0.488

— the supplement of paper PMC10307832
